Measurements published in US5336690A, “Aminosulfonyl carbamates composition and method of use to treat hypercholesterolemia and atherosclerosis” (Warner-Lambert Company, priority 1993, dated 1994).

How the values were obtained:
[1] = APCC in vivo screen: blood cholesterol in male Sprague-Dawley rats on high fat, high cholesterol diet with 0.5% cholic acid; details: Rattus norvegicus, single dose 30 mg/kg, high fat high cholesterol diet overnight, read-out: % Change (mg/dl) (cholesterol)
Source text: In one in vivo screen designated APCC, male Sprague-Dawley rats (200 to 225 g) were randomly divided into treatment groups and dosed at 4 PM with either vehicle (CMC/Tween) or suspensions of compounds in vehicle. The normal chow diet was then replaced with a high fat, high cholesterol diet with 0.5% cholic acid. The rats consumed this diet ad libitum during the night and were sacrificed at 8 AM to obtain blood samples for cholesterol analysis using standard procedures. Statistical differences between mean cholesterol values for the same vehicle were determined using analysis of variance followed by Fisher's least significant test. The compounds were dosed at 30 mg/kg unless otherwise noted.

[2] = molecular target: T1, acyl-CoA: cholesterol acyltransferase (ACAT) (Oryctolagus cuniculus, UniProt G1SFD9); assay: in vitro ACAT inhibition (IAI): formation of radiolabeled cholesterol oleate from radiolabeled oleic acid in rabbit intestinal microsomes; assay type: biochemical; details: rabbit intestinal microsomes; read-out: IAI IC50
T1 construct: tissue preparation containing rabbit intestinal microsomes; from tissue; host or cells: rabbit intestinal microsomes
T1 sequence (G1SFD9 1-524): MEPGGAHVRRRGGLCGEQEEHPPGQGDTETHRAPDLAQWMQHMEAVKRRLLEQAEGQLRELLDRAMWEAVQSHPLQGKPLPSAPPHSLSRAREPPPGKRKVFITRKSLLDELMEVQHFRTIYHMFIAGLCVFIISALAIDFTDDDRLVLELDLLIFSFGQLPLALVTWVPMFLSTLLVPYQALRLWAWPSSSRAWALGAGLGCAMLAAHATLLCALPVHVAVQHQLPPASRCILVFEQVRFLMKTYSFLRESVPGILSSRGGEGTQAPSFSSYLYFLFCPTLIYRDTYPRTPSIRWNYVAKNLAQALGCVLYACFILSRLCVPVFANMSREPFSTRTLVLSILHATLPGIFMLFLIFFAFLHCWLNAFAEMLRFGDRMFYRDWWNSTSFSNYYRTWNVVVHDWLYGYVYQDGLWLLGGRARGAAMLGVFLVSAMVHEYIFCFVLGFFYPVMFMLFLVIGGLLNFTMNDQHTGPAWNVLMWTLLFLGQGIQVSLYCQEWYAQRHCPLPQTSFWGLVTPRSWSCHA
Description: The ability of representative compounds of the present invention to inhibit ACAT was measured using an in vitro test more fully described in F. J. Field and R. G. Salone, Biochemica et Biophysica 712:557-570 (1982). The test assesses the ability of a test compound to inhibit the acylation of cholesterol by oleic acid by measuring the amount of radiolabeled cholesterol oleate formed from radiolabeled oleic acid in a tissue preparation containing rabbit intestinal microsomes.

## CC(C)c1cccc(C(C)C)c1NS(=O)(=O)NC(=O)Oc1c(-c2ccccc2)cccc1-c1ccccc1 [Example 56, [1,1':3', 1"-terphenyl]-2'-yl[[[2,6-bis(1-methylethyl)phenyl]amino]sulfonyl]carbamat]
[1]
  change in vivo at 30 mg/kg: -39%
[2]
  IC50: > 25 µM
